Experimental data taken from patent US9090576B2, “2-substituted-p-quinone derivatives for treatment of oxidative stress diseases” (Edison Pharmaceuticals, Inc., priority 2008, dated 2015).

Columns and labels:
Type in all cases: cell-based
[1] = test system: Human dermal fibroblasts from Friedreich's Ataxia patients; assay: Rescue of BSO-stressed FRDA fibroblasts (Calcein AM viability); conditions: BSO-stressed FRDA fibroblasts (GM04078), less than about 150 nM, read-out: EC50, protection against FRDA
Summary of the method: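 Patient FRDA fibroblasts (GM04078) seeded at 3,000 cells/well, given serially diluted compound from a 150 μM master solution, then stressed next day with 1 mM BSO.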

[2] = test system: human dermal fibroblasts from Huntington's patients; assay: Rescue of BSO-stressed fibroblasts from Huntington's patients (screen as Example A); conditions: Fibroblast, BSO-stressed Huntington's fibroblasts (GM 04281), less than about 150 nM, read-out: EC50, protection against Huntington's
Summary of the method: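 Coriell Huntington's line GM 04281 plated at 3,000 cells/well and attached overnight at 37 °C. Survival was read by Calcein AM (1.2 μM, 50-70 min, RT) fluorescence at 485/525 nm, giving EC50.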

[3] = test system: human dermal fibroblasts from LHON patients; assay: Rescue of BSO-stressed fibroblasts from LHON patients (screen as Example A); conditions: Fibroblast, BSO-stressed LHON fibroblasts (GM03858), less than about 150 nM, read-out: EC50, protection against LHON
Summary of the method: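 LHON patient fibroblasts (Coriell GM03858) at 3,000 cells/well were pre-treated overnight with compounds serially diluted from a 150 μM master solution. Surviving cells were stained with 1.2 μM Calcein AM for 50-70 min at RT and read by fluorescence (485/525 nm), giving EC50.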

[4] = test system: human dermal fibroblasts from Parkinson's Disease patients; assay: Rescue of BSO-stressed fibroblasts from Parkinson's Disease patients (screen as Example A); conditions: Fibroblast, BSO-stressed Parkinson's Disease fibroblasts (AG20439), less than about 150 nM, read-out: EC50, protection against PD
Summary of the method: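 Dermal fibroblasts from a Parkinson's Disease patient (Coriell AG20439) were plated at 3,000 cells/well, attached overnight and pre-incubated overnight with serially diluted compounds (150 μM master solution). Survival was read by 1.2 μM calcein AM (50–70 min, RT, 485/525 nm fluorescence) and converted to EC50.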

[5] = test system: human dermal fibroblasts from CoQ10 deficient patients; assay: Rescue of BSO-stressed fibroblasts from CoQ10 deficient patients (screen similar to Example A); conditions: Fibroblast, BSO-stressed fibroblasts from CoQ10 deficient patients harboring a CoQ2 mutation, less than about 150 nM, read-out: EC50, protection against CoQ10 deficiency

Measured: EC50

CC1=C(C)C(=O)C(CCCC(=O)Nc2ccc3c(c2)OCO3)=C(C)C1=O [N-(benzo[d][1,3]dioxol-5-yl)-4-(2,4,5-trimethyl-3,6-dioxocyclohexa-1,4-dienyl)butanamide]
< 150 nM: [1] | [2] | [3] | [4] | [5]

CCN(Cc1ccccc1)C(=O)CCCC1=C(C)C(=O)C(C)=C(C)C1=O [N-benzyl-N-ethyl-4-(2,4,5-trimethyl-3,6-dioxocyclohexa-1,4-dienyl)butanamide]
< 150 nM: [1] | [2] | [3] | [4] | [5]

CC1=C(C)C(=O)C(CCCC(=O)N(Cc2ccccc2)C(C)C)=C(C)C1=O [N-benzyl-N-isopropyl-4-(2,4,5-trimethyl-3,6-dioxocyclohexa-1,4-dienyl)butanamide]
< 150 nM: [1] | [2] | [3] | [4] | [5]

CC1=C(C)C(=O)C(CCCC(=O)N(C)Cc2ccccc2)=C(C)C1=O [N-benzyl-N-methyl-4-(2,4,5-trimethyl-3,6-dioxocyclohexa-1,4-dienyl)butanamide]
< 150 nM: [1] | [2] | [3] | [4] | [5]

CC1=C(C)C(=O)C(CCCC(=O)N(C)c2ccccc2)=C(C)C1=O [N-methyl-N-phenyl-4-(2,4,5-trimethyl-3,6-dioxocyclohexa-1,4-dienyl)butanamide]
< 150 nM: [1] | [2] | [3] | [4] | [5]

CC1=C(C)C(=O)C(CCCC(=O)Nc2ccc(C)cc2)=C(C)C1=O [N-p-tolyl-4-(2,4,5-trimethyl-3,6-dioxocyclohexa-1,4-dienyl)butanamide]
< 150 nM: [1] | [2] | [3] | [4] | [5]

CC1=C(C)C(=O)C(CCCC(=O)Nc2ccccc2)=C(C)C1=O [N-phenyl-4-(2,4,5-trimethyl-3,6-dioxocyclohexa-1,4-dienyl)butanamide]
< 150 nM: [1] | [2] | [3] | [4] | [5]
